Data published in ChEMBL document CHEMBL5036302, “Amphiol, an Antifungal Fungal Pigment from Pseudogymnoascus sp. PF1464” (2021).
In brackets after ≈: the same amount, converted by molar mass.

Key:
Type in all cases: functional
[1] = system: Aspergillus fumigatus; assay: Antifungal activity against Aspergillus fumigatus assessed as inhibition of fungal growth by CLSI protocol based microbroth dilution method
[2] = system: Escherichia coli; assay: Antibacterial activity against Escherichia coli assessed as inhibition of bacterial growth by CLSI protocol based microbroth dilution method
[3] = system: Schizosaccharomyces pombe; assay: Antifungal activity against Schizosaccharomyces pombe assessed as inhibition of fungal growth by CLSI protocol based microbroth dilution method
[4] = system: Staphylococcus aureus; assay: Antibacterial activity against Staphylococcus aureus assessed as inhibition of bacterial growth by CLSI protocol based microbroth dilution method
[5] = system: Candida albicans; assay: Antifungal activity against Candida albicans assessed as inhibition of fungal growth by CLSI protocol based microbroth dilution method

Row | MIC [1] | MIC [2] | MIC [3] | MIC [4] | MIC [5] | Compound
1 | 16 µg/mL (≈ 25 µM) | > 64 µg/mL | 0.8 µg/mL (≈ 1.25 µM) | > 64 µg/mL | 8 µg/mL (≈ 12.5 µM) | CC(/C=C/C=C/C=C/C=C/C=C/C=C/c1cc(O)c([C@@H]2O[C@H](CO)[C@@H](O)[C@H](O)[C@H]2O)c(=O)o1)=C\[C@H](C)C(=O)[C@@H](C)C[C@@H](C)[C@H](C)O
2 | – | – | 0.13 µg/mL (≈ 0.141 µM) | – | – | C[C@@H]1[C@H](O)[C@@H](C)/C=C/C=C/C=C/C=C/C=C/C=C/C=C/[C@H](O[C@@H]2O[C@H](C)[C@@H](O)[C@H](N)[C@@H]2O)C[C@@H]2O[C@](O)(C[C@@H](O)C[C@@H](O)[C@H](O)CC[C@@H](O)C[C@@H](O)CC(=O)O[C@H]1C)C[C@H](O)[C@H]2C(=O)O [AMPHOTERICIN B]
